Measured values: ChEMBL document CHEMBL1201862, “PubChem BioAssay data set” (2004)
Calls of active or inactive are those of the source.

Tests used:
Insulin-degrading enzyme = target: T1, Insulin-degrading enzyme (Homo sapiens, UniProt P14735); assay: Dose Response: Fluorescence polarization-based cell-based high throughput dose response assay for inhibitors of insulin-degrading enzyme (IDE). [Related pubchem assays: 434962 (Primary screen (IDE inhibitors in singlicate)), 449730 (Counterscreen (Cytotoxicity in triplicate)), 435028 (Confirmation (IDE inhibitors in triplicate)), 434984 (Summary …; type: functional
T1 sequence (P14735 whole entry): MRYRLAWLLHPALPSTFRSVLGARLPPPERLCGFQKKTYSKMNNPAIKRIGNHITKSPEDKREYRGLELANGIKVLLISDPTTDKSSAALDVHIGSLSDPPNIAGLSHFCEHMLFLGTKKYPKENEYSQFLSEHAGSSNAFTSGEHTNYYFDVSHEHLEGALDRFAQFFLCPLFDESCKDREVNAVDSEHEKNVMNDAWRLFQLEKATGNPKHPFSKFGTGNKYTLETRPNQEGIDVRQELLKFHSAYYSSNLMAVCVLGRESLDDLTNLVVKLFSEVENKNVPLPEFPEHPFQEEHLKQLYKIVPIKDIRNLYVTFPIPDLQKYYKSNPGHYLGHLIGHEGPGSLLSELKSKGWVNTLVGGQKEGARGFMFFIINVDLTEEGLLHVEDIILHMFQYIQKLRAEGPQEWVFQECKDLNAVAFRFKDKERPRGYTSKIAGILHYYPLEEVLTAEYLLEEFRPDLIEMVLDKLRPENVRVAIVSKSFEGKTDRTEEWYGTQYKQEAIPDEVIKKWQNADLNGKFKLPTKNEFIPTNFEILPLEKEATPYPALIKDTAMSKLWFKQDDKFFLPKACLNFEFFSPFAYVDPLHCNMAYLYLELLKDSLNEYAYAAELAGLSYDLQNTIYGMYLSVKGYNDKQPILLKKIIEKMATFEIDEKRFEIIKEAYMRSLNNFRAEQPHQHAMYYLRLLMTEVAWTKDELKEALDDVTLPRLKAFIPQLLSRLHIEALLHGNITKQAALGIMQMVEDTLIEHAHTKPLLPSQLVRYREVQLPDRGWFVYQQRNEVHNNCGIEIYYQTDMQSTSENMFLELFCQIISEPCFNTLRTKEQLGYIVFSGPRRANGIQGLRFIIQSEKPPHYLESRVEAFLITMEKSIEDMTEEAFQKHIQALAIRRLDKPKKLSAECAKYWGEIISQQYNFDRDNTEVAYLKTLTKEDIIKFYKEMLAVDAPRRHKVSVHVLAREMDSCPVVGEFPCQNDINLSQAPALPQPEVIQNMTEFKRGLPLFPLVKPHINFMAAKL

[1] = target: DNA dC->dU-editing enzyme APOBEC-3A (Homo sapiens, UniProt P31941); assay: Dose Response confirmation of small molecule APOBEC3A DNA Deaminase Inhibitors via a fluorescence-based single-stranded DNA deaminase assay. [Related pubchem assays (depositor defined):AID493011, AID493024]; type: functional
Sequence of DNA dC->dU-editing enzyme APOBEC-3A (P31941 whole entry): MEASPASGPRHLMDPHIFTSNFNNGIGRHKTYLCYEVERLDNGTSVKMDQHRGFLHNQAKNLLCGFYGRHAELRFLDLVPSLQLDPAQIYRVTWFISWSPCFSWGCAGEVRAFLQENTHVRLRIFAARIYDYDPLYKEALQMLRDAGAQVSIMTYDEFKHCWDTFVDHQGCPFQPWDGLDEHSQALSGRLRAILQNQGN

[2] = Counterscreen for IDE inhibitors: Luminescence-based cell-based high throughput dose response assay to identify compounds that are cytotoxic to HEK cells. [Related pubchem assays: 434962 (Primary screen (IDE inhibitors in singlicate)), 449730 (Counterscreen (Cytotoxicity in triplicate)), 435028 (Confirmation (IDE inhibitors in triplicate)) …; type: functional; conditions: HEK293
[3] = target: DNA dC->dU-editing enzyme APOBEC-3G (Homo sapiens, UniProt Q9HC16); type: functional;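 also: Dose-response counterscreen measuring inhibition of APOBEC3G DNA deaminase activity, run while confirming APOBEC3A inhibitors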
Sequence of DNA dC->dU-editing enzyme APOBEC-3G (Q9HC16 whole entry): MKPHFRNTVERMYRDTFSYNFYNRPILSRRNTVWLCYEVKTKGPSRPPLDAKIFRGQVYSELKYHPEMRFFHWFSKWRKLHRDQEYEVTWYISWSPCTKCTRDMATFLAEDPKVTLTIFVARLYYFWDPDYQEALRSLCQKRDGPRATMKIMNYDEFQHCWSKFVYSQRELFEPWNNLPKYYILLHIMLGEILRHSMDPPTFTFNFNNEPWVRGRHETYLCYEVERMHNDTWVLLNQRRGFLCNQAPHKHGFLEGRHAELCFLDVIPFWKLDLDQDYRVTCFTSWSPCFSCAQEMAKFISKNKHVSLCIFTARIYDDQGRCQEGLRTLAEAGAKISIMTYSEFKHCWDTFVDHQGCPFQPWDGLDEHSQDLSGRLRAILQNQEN

Protein skinhead-1 = target: T2, Protein skinhead-1 (Caenorhabditis elegans, UniProt P34707); type: functional
T2 sequence (P34707 whole entry): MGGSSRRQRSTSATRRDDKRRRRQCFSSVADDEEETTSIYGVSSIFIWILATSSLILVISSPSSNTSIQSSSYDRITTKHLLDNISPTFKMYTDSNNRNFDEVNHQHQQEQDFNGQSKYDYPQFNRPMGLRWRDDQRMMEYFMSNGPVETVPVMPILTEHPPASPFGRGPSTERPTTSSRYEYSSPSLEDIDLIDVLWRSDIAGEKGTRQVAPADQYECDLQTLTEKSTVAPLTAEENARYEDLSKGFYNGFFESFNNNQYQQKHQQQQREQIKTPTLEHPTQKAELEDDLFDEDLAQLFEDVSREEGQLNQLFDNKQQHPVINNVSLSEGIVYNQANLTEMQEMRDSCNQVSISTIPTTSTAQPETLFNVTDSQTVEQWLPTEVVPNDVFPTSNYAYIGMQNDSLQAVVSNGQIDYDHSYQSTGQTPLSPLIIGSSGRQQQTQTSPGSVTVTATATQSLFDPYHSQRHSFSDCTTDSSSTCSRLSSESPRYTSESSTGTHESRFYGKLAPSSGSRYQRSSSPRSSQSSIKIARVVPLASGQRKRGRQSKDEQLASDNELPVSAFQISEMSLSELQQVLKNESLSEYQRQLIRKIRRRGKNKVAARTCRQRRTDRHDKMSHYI

[4] = target: T3, Mannose-6-phosphate isomerase (Homo sapiens, UniProt P34949); assay: inhibitors of human PMI, primary screen, biochemical, fluorescence intensity, coupled assay (AID 1209)
T3 sequence (P34949 whole entry): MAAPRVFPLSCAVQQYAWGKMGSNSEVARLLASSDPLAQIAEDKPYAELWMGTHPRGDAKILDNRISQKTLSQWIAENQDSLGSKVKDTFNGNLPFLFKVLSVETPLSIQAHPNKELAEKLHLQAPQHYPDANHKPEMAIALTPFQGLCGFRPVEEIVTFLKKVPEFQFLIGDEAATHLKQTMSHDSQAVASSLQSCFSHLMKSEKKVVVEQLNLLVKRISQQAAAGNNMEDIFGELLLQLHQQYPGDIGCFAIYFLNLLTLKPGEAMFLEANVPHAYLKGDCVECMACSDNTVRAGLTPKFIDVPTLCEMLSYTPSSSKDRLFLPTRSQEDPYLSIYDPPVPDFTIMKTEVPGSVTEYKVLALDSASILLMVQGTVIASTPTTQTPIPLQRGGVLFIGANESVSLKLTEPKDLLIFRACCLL

Protein RecA = target: T4, Protein RecA (Mycobacterium tuberculosis, UniProt P9WHJ3); assay: Fluorescence Cell-Free Homogeneous Dose Retest to Identify Inhibitors of RecA-Intein Splicing Activity. [Related pubchem assays (depositor defined):AID2097, AID2223, AID489010, AID492950]; type: functional
T4 sequence (P9WHJ3 whole entry): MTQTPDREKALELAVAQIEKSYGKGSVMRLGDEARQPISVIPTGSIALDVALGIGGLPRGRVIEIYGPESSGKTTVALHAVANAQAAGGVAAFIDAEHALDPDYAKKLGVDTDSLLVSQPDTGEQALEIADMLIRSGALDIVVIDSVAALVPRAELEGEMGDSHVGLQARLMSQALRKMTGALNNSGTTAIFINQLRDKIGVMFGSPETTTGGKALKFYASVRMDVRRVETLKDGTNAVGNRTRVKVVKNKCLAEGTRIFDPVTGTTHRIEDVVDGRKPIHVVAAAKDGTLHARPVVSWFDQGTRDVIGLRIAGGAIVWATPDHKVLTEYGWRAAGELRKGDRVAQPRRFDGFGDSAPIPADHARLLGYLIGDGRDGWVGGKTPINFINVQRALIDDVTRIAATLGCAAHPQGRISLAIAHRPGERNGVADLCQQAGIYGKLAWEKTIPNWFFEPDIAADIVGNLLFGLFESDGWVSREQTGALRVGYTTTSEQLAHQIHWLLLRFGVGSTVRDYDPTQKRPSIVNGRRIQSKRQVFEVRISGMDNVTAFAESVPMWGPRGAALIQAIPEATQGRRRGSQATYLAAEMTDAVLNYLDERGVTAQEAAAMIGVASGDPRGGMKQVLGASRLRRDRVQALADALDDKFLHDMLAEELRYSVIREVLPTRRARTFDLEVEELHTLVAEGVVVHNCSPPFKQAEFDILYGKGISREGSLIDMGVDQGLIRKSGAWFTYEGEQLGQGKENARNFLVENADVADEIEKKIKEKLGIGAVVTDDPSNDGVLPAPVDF

[5] = target: T5, Replicative DNA helicase DnaB (Mycobacterium tuberculosis, UniProt P9WMR3); assay: DnaB intein splicing inhibitors, dose response, biochemical, cell-free fluorescence (AID 449749); type: functional
T5 sequence (P9WMR3 whole entry): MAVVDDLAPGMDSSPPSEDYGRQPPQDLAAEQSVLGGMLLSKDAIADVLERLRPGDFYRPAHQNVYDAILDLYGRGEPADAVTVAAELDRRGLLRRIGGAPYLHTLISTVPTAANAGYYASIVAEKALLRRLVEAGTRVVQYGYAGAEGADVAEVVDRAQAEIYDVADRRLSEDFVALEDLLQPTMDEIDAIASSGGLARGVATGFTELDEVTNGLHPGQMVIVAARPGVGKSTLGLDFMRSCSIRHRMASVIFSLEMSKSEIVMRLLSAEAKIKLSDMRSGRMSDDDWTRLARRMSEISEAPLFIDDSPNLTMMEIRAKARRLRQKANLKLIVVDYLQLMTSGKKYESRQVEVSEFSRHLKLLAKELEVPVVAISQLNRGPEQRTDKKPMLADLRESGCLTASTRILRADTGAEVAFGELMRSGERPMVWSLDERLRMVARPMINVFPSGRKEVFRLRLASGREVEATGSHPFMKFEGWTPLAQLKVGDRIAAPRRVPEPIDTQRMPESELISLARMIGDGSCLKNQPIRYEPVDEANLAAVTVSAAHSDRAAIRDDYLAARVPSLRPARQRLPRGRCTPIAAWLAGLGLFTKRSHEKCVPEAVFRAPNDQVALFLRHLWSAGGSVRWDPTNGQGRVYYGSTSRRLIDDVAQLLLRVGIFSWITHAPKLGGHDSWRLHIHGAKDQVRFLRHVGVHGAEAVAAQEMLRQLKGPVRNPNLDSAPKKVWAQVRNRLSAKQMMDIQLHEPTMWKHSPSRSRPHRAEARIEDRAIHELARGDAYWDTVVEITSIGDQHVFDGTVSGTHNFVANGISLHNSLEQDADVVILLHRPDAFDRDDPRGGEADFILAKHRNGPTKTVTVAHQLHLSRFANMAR

[6] = target: T3, Mannose-6-phosphate isomerase; assay: human PMI inhibitors, high substrate, primary screen, biochemical, fluorescence intensity, high mannose 6-phosphate (AID 1220)
[7] = target: Photoreceptor-specific nuclear receptor (Homo sapiens, UniProt Q9Y5X4); assay: NR2E3 inverse agonists, dose response, biochemical, TR-FRET (AID 463256); type: functional
Sequence of Photoreceptor-specific nuclear receptor (Q9Y5X4 whole entry): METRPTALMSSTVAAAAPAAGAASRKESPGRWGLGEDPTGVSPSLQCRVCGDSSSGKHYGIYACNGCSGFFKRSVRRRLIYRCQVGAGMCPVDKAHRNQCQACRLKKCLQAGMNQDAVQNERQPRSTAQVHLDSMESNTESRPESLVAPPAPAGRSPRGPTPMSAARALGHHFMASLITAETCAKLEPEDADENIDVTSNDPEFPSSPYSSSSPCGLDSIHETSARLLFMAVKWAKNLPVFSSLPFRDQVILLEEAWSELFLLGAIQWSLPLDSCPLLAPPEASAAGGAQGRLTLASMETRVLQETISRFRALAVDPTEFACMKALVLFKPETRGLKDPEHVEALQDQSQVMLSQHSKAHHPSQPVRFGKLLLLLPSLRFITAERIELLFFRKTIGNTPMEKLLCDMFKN

[8] = target: T6, Small ubiquitin-related modifier 1 (Homo sapiens, UniProt P63165); assay: inhibitors of SUMO1 partner interactions, dose response, biochemical, FRET (AID 624383); type: functional; conditions: read-out: IC50_Mean
T6 sequence (P63165 whole entry): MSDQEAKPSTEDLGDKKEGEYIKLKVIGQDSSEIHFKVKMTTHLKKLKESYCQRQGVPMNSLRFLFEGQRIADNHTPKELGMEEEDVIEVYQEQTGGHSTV

[9] = target: Peroxisome proliferator-activated receptor gamma/Nuclear receptor corepressor 2 (Homo sapiens, UniProt P37231+Q9Y618); assay: Counterscreen for NR2E3 inverse agonists: TR-FRET-based biochemical high throughput dose response assay to identify inverse agonists of the interaction between peroxisome proliferator-activated receptor gamma (PPARg) and nuclear receptor co-repressor 2 (NCOR2).; type: functional
Sequence of Peroxisome proliferator-activated receptor gamma/Nuclear receptor corepressor 2 (P37231 whole entry): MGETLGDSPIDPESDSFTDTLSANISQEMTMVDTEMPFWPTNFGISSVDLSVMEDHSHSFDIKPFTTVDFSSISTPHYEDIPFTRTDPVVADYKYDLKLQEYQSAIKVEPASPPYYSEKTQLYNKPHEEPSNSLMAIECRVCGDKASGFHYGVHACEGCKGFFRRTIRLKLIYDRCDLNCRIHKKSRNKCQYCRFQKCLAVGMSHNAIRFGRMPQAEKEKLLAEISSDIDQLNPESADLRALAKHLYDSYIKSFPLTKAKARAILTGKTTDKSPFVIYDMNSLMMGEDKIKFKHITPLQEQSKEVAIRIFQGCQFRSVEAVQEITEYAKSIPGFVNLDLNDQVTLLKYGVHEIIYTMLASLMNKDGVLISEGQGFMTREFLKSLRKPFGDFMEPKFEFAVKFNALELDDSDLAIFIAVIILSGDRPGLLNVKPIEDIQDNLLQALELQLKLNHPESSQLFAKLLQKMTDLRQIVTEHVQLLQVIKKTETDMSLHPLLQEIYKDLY
Sequence of Peroxisome proliferator-activated receptor gamma/Nuclear receptor corepressor 2 (Q9Y618 whole entry): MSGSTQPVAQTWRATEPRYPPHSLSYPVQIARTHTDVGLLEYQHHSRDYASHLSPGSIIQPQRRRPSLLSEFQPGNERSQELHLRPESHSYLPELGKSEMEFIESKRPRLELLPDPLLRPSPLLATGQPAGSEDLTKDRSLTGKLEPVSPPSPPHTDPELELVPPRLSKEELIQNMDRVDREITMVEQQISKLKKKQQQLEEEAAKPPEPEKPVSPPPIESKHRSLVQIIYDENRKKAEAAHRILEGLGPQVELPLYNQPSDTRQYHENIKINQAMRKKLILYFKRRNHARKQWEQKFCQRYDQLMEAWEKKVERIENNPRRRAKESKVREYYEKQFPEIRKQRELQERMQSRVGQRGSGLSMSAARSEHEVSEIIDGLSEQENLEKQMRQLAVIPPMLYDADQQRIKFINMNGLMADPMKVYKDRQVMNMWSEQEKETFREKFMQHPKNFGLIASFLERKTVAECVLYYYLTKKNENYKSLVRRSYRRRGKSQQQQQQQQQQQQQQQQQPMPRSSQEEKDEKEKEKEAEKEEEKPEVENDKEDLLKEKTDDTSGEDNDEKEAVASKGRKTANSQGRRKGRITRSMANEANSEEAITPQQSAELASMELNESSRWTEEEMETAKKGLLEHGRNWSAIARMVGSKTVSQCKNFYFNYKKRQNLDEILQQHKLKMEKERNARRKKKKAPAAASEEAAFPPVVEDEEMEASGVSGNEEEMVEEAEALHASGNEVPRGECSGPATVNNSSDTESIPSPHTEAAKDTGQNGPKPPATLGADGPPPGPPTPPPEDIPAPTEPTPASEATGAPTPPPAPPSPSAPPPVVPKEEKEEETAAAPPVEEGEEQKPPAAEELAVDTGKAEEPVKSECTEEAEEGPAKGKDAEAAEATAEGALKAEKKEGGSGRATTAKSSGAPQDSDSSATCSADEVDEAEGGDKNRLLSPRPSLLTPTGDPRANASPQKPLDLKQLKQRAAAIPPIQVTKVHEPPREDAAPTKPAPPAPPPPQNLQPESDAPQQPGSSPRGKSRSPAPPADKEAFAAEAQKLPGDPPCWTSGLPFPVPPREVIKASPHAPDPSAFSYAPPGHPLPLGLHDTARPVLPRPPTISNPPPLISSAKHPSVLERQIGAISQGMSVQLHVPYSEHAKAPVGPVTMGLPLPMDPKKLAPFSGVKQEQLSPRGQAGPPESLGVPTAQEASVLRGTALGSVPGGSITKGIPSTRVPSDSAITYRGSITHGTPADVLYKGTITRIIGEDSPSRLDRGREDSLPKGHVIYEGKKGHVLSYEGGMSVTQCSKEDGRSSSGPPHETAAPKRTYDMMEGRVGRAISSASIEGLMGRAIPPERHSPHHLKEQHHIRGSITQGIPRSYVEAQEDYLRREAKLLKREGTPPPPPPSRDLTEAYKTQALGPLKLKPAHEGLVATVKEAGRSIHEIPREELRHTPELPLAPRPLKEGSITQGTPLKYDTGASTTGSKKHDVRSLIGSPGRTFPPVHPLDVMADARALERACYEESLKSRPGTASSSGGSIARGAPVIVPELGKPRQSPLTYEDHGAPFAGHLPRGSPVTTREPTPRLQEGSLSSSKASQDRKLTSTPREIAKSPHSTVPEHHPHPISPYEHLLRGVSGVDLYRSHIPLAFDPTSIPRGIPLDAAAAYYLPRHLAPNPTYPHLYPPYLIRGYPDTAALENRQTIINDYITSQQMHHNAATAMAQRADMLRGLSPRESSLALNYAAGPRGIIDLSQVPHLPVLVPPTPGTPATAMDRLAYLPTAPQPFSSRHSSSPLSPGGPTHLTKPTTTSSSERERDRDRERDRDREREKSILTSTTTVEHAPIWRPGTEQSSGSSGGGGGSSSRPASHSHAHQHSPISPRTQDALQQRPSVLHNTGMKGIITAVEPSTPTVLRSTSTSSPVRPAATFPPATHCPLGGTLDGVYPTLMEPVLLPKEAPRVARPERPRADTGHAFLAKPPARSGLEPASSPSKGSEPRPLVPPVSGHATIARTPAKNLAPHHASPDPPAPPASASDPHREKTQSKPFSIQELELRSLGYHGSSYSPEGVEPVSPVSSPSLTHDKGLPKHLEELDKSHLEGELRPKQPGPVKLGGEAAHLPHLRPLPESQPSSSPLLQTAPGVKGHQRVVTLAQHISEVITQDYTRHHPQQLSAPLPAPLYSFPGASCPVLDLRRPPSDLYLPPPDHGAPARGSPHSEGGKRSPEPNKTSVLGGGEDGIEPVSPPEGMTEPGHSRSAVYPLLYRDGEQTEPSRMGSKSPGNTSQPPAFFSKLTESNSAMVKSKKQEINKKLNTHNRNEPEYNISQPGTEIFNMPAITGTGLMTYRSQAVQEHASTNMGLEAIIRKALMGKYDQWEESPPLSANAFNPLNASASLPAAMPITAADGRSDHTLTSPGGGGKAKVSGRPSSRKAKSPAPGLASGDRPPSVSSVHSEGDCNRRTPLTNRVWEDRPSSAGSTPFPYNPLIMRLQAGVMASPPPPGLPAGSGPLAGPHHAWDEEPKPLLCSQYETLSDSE

[10] = target: T6, Small ubiquitin-related modifier 1; assay: inhibitors of SUMO1 peptide binding, dose response, biochemical, fluorescence polarization, uHTS hits (AID 624382); type: functional; conditions: read-out: IC50_Mean

With CC[n+]1c(/C=C2/C=CN(CCCS(=O)(=O)[O-])c3ccccc32)sc2ccccc21 the IC50 (Insulin-degrading enzyme) was 12.3 µM (not active), the IC50 [1] was 2.69 µM (active) and the IC50 [2] was > 55.7 µM (not active). For the same compound, the IC50 [3] was 2.97 µM (active).

With CCN(CC)c1ccc2oc(=O)c(C)nc2c1 the IC50 (Protein skinhead-1) was > 100 µM (inactive), the IC50 [4] was 10 µM (active) and the EC50 (Protein RecA) was 7.63 µM (active). The AC50 [5] was > 380 µM (inactive) and the IC50 [6] was 12.7 µM (active).

In the case of Cc1ccc(NC(=O)CSc2nc3ccccc3c3nc(CCc4c(C)n[nH]c4C)nn23)cc1F, the IC50 [7] was 0.474 µM (active), the IC50 [8] was 3.78 µM (active) and the IC50 [9] was 0.356 µM (active). For the same compound, the IC50 [10] was > 66.6 µM (inactive).

In the case of CC(C)(C)C(=O)N1CCN(c2ccnc3cc(Cl)ccc23)CC1, the IC50 (Insulin-degrading enzyme) was 18.6 µM (not active) and the IC50 [2] was 20.8 µM (not active).
